From patent US10265274B2, “Formulations and kits for forming bioadhesive matrices” (Technology Innovation Momentum Fund (Israel) Limited …, priority 2012, dated 2019)
Structures can show the parent of a compound that is named as a salt.

What was measured:
Fibroblast cells = assay: Cytotoxicity test, Alamar Blue reduction; assay type: cell-based; conditions: fibroblasts, 24 hours, relative to control cells
Description: Fibroblast cells (14th passage) were thawed and cultured in […] flasks with culture medium at 37° C., humidified atmosphere and 5% CO2. The cells were cultured with modified Eagle's medium supplemented with 10% fetal bovine serum, 1% L-glutamine and 0.1% penicillin-streptomycin-nystatin. At confluence of 70% (at passages 16-19) the cells were separated using incubation for 3 minutes with 1 ml trypsin A, the free cells were added to the culture medium and seeded in a 6 well plate.
When confluence of 70% was reached the medium was replaced by 2 ml of medium containing 10% v/v Alamar blue for 4 hours of incubation. Thereafter, two 100 μL samples were taken from each well and inserted to a 96 well plate. The plate was inserted for analysis at a spectrophotometer (Spectra max 340 PC384, Molecular Devices) at 570 and 600 nm.
Two experiments were carried out, at first each component of the bioadhesive were inserted separately to a test tube containing 4 ml medium and incubated for 24 hours and then that medium was added to the cells instead of the medium containing Alamar Blue. In the second experiment, the medium with Alamar Blue was replaced with 4 ml of fresh medium and 0.1 ml of bioadhesive was added to the medium and incubated for 24 hours followed by another reading using Alamar Blue.
The reduction of Alamar Blue's absorption was calculated using the manufacturer's protocol, namely Alamar Blue reduction=(ε600A^t570−ε570A^t600)/(ε570A^c600−ε600A^c570), wherein ε570 and ε600 are the molar extinction coefficients of oxidized Alamar Blue at 570 nm and 600 nm respectively, A^t and Ac are the absorbance of test and control respectively at 570 nm and 600 nm respectively, whereas the control is taken as the medium with Alamar blue but without any cells.

[1] = cited from earlier work

| SMILES | cell viability (Fibroblast cells; aqueous drug solution 2% w/v) | cell viability (Fibroblast cells; aqueous drug solution 3% w/v) | isoelectric points (pKa) [1] |
| --- | --- | --- | --- |
| CCCCN1CCCCC1C(=O)Nc1c(C)cccc1C (centres unmarked) [bupivacaine, Bupivacaine hydrochloride] | 67.6% | 58.8% | 8.1-8.4 |
| CC(C)Cc1ccc(C(C)C(=O)[O-])cc1.[Na+] (centres unmarked) [ibuprofen, Ibuprofen sodium salt] | 93.5% | 79.7% |  |
